Measured values taken from the NIST ThermoML archive (doi:10.1016/j.tca.2008.05.002).
Numbers after ± are expanded uncertainties.

Experiment: molar heat capacity at saturation pressure
Details: Small (less than 1 g) adiabatic calorimetry

CCCCn1cc[n+](C)c1.O=[N+]([O-])[O-] [1-butyl-3-methylimidazolium nitrate]
Details | molar heat capacity [J/K/mol]
223.56 K, Crystal 4 | 239.25 ± 1.2
224.66 K, Crystal 4 | 240.26 ± 1.2
225.64 K, Crystal 4 | 241.27 ± 1.2
226.74 K, Crystal 4 | 242.07 ± 1.2
227.72 K, Crystal 4 | 243.28 ± 1.2
228.81 K, Crystal 4 | 244.08 ± 1.2
229.79 K, Crystal 4 | 245.29 ± 1.2
230.88 K, Crystal 4 | 246.1 ± 1.2
231.86 K, Crystal 4 | 247.3 ± 1.2
232.95 K, Crystal 4 | 248.31 ± 1.2
233.92 K, Crystal 4 | 249.32 ± 1.2
235.01 K, Crystal 4 | 250.32 ± 1.2
235.97 K, Crystal 4 | 251.53 ± 1.2
237.06 K, Crystal 4 | 252.54 ± 1.2
238.03 K, Crystal 4 | 253.54 ± 1.2
239.1 K, Crystal 4 | 254.75 ± 1.2
239.2 K, Crystal 4 | 254.95 ± 1.2
240.07 K, Crystal 4 | 255.55 ± 1.2
241.14 K, Crystal 4 | 256.96 ± 1.2
241.7 K, Crystal 4 | 257.57 ± 1.2
242.11 K, Crystal 4 | 257.77 ± 1.2
243.17 K, Crystal 4 | 259.18 ± 1.2
244.08 K, Crystal 4 | 260.18 ± 1.2
244.15 K, Crystal 4 | 259.98 ± 1.2
245.2 K, Crystal 4 | 261.39 ± 1.2
246.17 K, Crystal 4 | 262.6 ± 1.2
246.45 K, Crystal 4 | 262.8 ± 1.2
247.22 K, Crystal 4 | 263.8 ± 1.2
248.19 K, Crystal 4 | 265.01 ± 1.2
248.81 K, Crystal 4 | 265.61 ± 1.2
249.23 K, Crystal 4 | 266.42 ± 1.2
250.2 K, Crystal 4 | 267.63 ± 1.2
251.15 K, Crystal 4 | 268.43 ± 1.2
251.23 K, Crystal 4 | 269.04 ± 1.2
252.21 K, Crystal 4 | 270.04 ± 1.2
253.23 K, Crystal 4 | 271.45 ± 1.2
253.48 K, Crystal 4 | 271.45 ± 1.2
254.2 K, Crystal 4 | 272.66 ± 1.2
255.22 K, Crystal 4 | 274.27 ± 1.2
255.8 K, Crystal 4 | 274.87 ± 1.2
256.19 K, Crystal 4 | 275.68 ± 1.2
257.2 K, Crystal 4 | 277.29 ± 1.4
258.1 K, Crystal 4 | 278.49 ± 1.4
258.18 K, Crystal 4 | 278.49 ± 1.4
259.18 K, Crystal 4 | 280.3 ± 1.4
260.15 K, Crystal 4 | 281.51 ± 1.4
260.4 K, Crystal 4 | 282.11 ± 1.4
261.14 K, Crystal 4 | 283.32 ± 1.4
262.11 K, Crystal 4 | 284.53 ± 1.4
262.67 K, Crystal 4 | 286.14 ± 1.4
263.1 K, Crystal 4 | 286.54 ± 1.4
264.07 K, Crystal 4 | 287.95 ± 1.4
264.94 K, Crystal 4 | 289.96 ± 1.4
265.05 K, Crystal 4 | 289.56 ± 1.4
266.02 K, Crystal 4 | 291.37 ± 1.4
267 K, Crystal 4 | 293.79 ± 1.4
267.19 K, Crystal 4 | 294.19 ± 1.4
267.95 K, Crystal 4 | 295.4 ± 1.4
268.93 K, Crystal 4 | 297.81 ± 1.4
269.43 K, Crystal 4 | 299.02 ± 1.4
269.88 K, Crystal 4 | 299.82 ± 1.4
270.85 K, Crystal 4 | 302.44 ± 1.4
271.65 K, Crystal 4 | 304.85 ± 1.4
271.78 K, Crystal 4 | 304.65 ± 1.4
271.8 K, Liquid | 345.1 ± 1.6
272.76 K, Crystal 4 | 307.47 ± 1.4
273.68 K, Crystal 4 | 310.69 ± 1.4
273.85 K, Crystal 4 | 312.1 ± 1.4
274.46 K, Liquid | 345.9 ± 1.6
274.66 K, Crystal 4 | 313.71 ± 1.4
275.56 K, Crystal 4 | 318.94 ± 1.4
276.02 K, Crystal 4 | 318.54 ± 1.6
276.35 K, Crystal 4 | 310.08 ± 1.4
277.02 K, Liquid | 346.71 ± 1.6
277.33 K, Crystal 4 | 355.76 ± 2
277.73 K, Crystal 4 | 345.5 ± 2
277.82 K, Crystal 4 | 609.71 ± 3.6
278.14 K, Crystal 4 | 322.56 ± 1.6
278.16 K, Crystal 4 | 408.68 ± 2.2
278.25 K, Crystal 4 | 455.57 ± 3
278.82 K, Crystal 3 | 545.72 ± 7.6
279.03 K, Crystal 3 | 470.06 ± 5.2
279.41 K, Liquid | 347.51 ± 1.6
279.47 K, Crystal 3 | 414.92 ± 7.2
279.88 K, Crystal 3 | 382.53 ± 3
280.31 K, Crystal 3 | 308.07 ± 1.8
280.95 K, Crystal 3 | 310.08 ± 1.4
281.81 K, Liquid | 348.32 ± 1.6
281.84 K, Crystal 3 | 313.91 ± 1.6
281.86 K, Crystal 3 | 314.31 ± 1.6
282.47 K, Crystal 3 | 319.54 ± 1.4
283.34 K, Crystal 3 | 324.98 ± 1.6
283.95 K, Crystal 3 | 333.43 ± 1.6
284.03 K, Crystal 3 | 333.23 ± 1.6
284.21 K, Liquid | 349.12 ± 1.6
284.81 K, Crystal 3 | 341.48 ± 1.6
285.42 K, Crystal 3 | 355.56 ± 1.6
286.1 K, Crystal 3 | 372.26 ± 2
286.25 K, Crystal 3 | 363.41 ± 1.8
286.61 K, Liquid | 349.93 ± 1.6
286.8 K, Crystal 3 | 390.78 ± 1.8
287.64 K, Crystal 3 | 372.26 ± 1.8
288.03 K, Crystal 3 | 432.83 ± 3.6
288.12 K, Crystal 2 | 417.54 ± 2.2
289.01 K, Liquid | 350.73 ± 1.6
289.03 K, Crystal 2 | 359.38 ± 1.8
289.45 K, Crystal 2 | 366.43 ± 1.6
289.95 K, Crystal 2 | 362.2 ± 1.6
290.42 K, Crystal 2 | 367.43 ± 1.6
290.84 K, Crystal 2 | 370.25 ± 2
291.41 K, Liquid | 351.54 ± 1.6
291.75 K, Crystal 2 | 425.39 ± 2
291.98 K, Crystal 2 | 378.5 ± 1.8
292.18 K, Crystal 2 | 416.33 ± 4.2
293 K, Crystal 1 | 432.03 ± 2.8
293.5 K, Crystal 1 | 380.51 ± 2
293.81 K, Liquid | 352.34 ± 1.6
293.98 K, Crystal 1 | 378.1 ± 1.8
294.33 K, Crystal 1 | 377.9 ± 1.8
294.87 K, Crystal 1 | 383.53 ± 1.8
295.97 K, Crystal 1 | 397.01 ± 1.8
296.14 K, Crystal 1 | 399.03 ± 1.8
296.21 K, Liquid | 353.15 ± 1.6
296.66 K, Crystal 1 | 410.29 ± 1.8
297.89 K, Crystal 1 | 432.63 ± 2
298.32 K, Crystal 1 | 442.09 ± 2
298.61 K, Liquid | 353.95 ± 1.6
298.79 K, Crystal 1 | 458.19 ± 2.2
299.7 K, Crystal 1 | 486.36 ± 2.2
300.51 K, Crystal 1 | 519.76 ± 2.4
300.77 K, Crystal 1 | 538.67 ± 2.6
301.01 K, Liquid | 354.76 ± 1.6
301.36 K, Crystal 1 | 572.08 ± 2.8
302.38 K, Crystal 1 | 652.97 ± 4.2
302.52 K, Crystal 1 | 675.3 ± 3.8
302.83 K, Crystal 1 | 708.51 ± 4.2
303.42 K, Liquid | 355.76 ± 1.6
303.87 K, Crystal 1 | 876.13 ± 7
303.98 K, Crystal 1 | 909.13 ± 6.2
304.08 K, Crystal 1 | 926.83 ± 5.2
305.82 K, Liquid | 356.57 ± 1.6
308.22 K, Liquid | 357.37 ± 1.6
310.14 K, Liquid | 358.38 ± 1.6
310.4 K, Liquid | 358.58 ± 1.6
310.62 K, Liquid | 358.38 ± 1.6
311.19 K, Liquid | 358.58 ± 1.6
312.54 K, Liquid | 359.18 ± 1.6
313.02 K, Liquid | 358.98 ± 1.6
313.34 K, Liquid | 359.18 ± 1.6
314.75 K, Liquid | 359.99 ± 1.6
315.42 K, Liquid | 360.19 ± 1.6
315.54 K, Liquid | 359.99 ± 1.6
316.76 K, Liquid | 360.59 ± 1.6
317.74 K, Liquid | 360.99 ± 1.6
317.82 K, Liquid | 360.99 ± 1.6
318.76 K, Liquid | 361.6 ± 1.6
319.94 K, Liquid | 361.8 ± 1.6
320.21 K, Liquid | 362 ± 1.6
320.76 K, Liquid | 362.4 ± 1.6
322.14 K, Liquid | 362.81 ± 1.6
322.61 K, Liquid | 363.01 ± 1.6
322.77 K, Liquid | 363.41 ± 1.6
324.34 K, Liquid | 363.61 ± 1.6
324.77 K, Liquid | 364.01 ± 1.6
325.01 K, Liquid | 363.81 ± 1.6
326.54 K, Liquid | 364.62 ± 1.6
326.77 K, Liquid | 364.62 ± 1.6
327.41 K, Liquid | 365.02 ± 1.6
328.73 K, Liquid | 365.22 ± 1.6
328.78 K, Liquid | 365.42 ± 1.6
329.81 K, Liquid | 365.82 ± 1.6
330.78 K, Liquid | 366.43 ± 1.6
330.93 K, Liquid | 366.23 ± 1.6
332.2 K, Liquid | 366.83 ± 1.6
332.78 K, Liquid | 367.23 ± 1.6
333.12 K, Liquid | 367.03 ± 1.6
334.6 K, Liquid | 367.84 ± 1.6
334.78 K, Liquid | 368.24 ± 1.6
335.32 K, Liquid | 367.84 ± 1.6
336.78 K, Liquid | 368.84 ± 1.6
336.99 K, Liquid | 368.64 ± 1.6
337.51 K, Liquid | 369.04 ± 1.6
338.78 K, Liquid | 369.65 ± 1.6
339.71 K, Liquid | 369.65 ± 1.6
340.78 K, Liquid | 370.45 ± 1.6
341.9 K, Liquid | 370.45 ± 1.6
342.78 K, Liquid | 371.46 ± 1.6
344.09 K, Liquid | 371.46 ± 1.6
344.78 K, Liquid | 372.26 ± 1.6
346.29 K, Liquid | 372.46 ± 1.6
346.78 K, Liquid | 373.27 ± 1.6
348.48 K, Liquid | 373.47 ± 1.6
348.78 K, Liquid | 374.07 ± 1.6
350.68 K, Liquid | 374.28 ± 1.6
350.78 K, Liquid | 374.88 ± 1.6
352.78 K, Liquid | 375.68 ± 1.6
352.87 K, Liquid | 375.48 ± 1.6
354.78 K, Liquid | 376.69 ± 1.8
355.06 K, Liquid | 376.29 ± 1.6
356.78 K, Liquid | 377.7 ± 1.8
357.25 K, Liquid | 377.49 ± 1.8
358.78 K, Liquid | 378.3 ± 1.8
359.44 K, Liquid | 378.3 ± 1.8
360.77 K, Liquid | 379.31 ± 1.8
361.63 K, Liquid | 379.31 ± 1.8
363.82 K, Liquid | 380.11 ± 1.8
366.01 K, Liquid | 381.12 ± 1.8
368.19 K, Liquid | 382.32 ± 1.8
